Measured values as given in PubChem BioAssay (NCI).
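The compound was tested at five concentrations on cells cultured in 96-well plates, with a 48-hour exposure period. The concentration for 50% growth inhibition is given as GI50. TGI is the concentration that stops growth completely.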

Experiments:
Experiment in all cases: DTP human tumour cell line panel, 48 h; in the data active = GI50 below about 0.43 µM; inactive = the rest
SK-OV-3 ovarian = system: SK-OV-3 ovarian
K-562 leukemia = system: K-562 leukemia
ACHN renal = system: ACHN renal
KM12 colon = system: KM12 colon
SK-MEL-28 melanoma = system: SK-MEL-28 melanoma
HOP-62 NSCLC = system: HOP-62 NSCLC
UACC-257 melanoma = system: UACC-257 melanoma
NCI-H23 lung = system: NCI-H23 lung
HCT-116 colon = system: HCT-116 colon
NCI-H460 lung = system: NCI-H460 lung
TK-10 renal = system: TK-10 renal
MDA-MB-435 = system: MDA-MB-435
PC-3 prostate = system: PC-3 prostate
BT-549 breast = system: BT-549 breast
MDA-MB-231 breast = system: MDA-MB-231 breast
LOX IMVI melanoma = system: LOX IMVI melanoma
SF-539 CNS = system: SF-539 CNS
UACC-62 melanoma = system: UACC-62 melanoma
786-0 renal = system: 786-0 renal
OVCAR-5 ovarian = system: OVCAR-5 ovarian
SN12C renal = system: SN12C renal
M14 melanoma = system: M14 melanoma
T-47D breast = system: T-47D breast
COLO 205 colon = system: COLO 205 colon
A498 renal = system: A498 renal
OVCAR-3 ovarian = system: OVCAR-3 ovarian
SF-268 CNS = system: SF-268 CNS
SNB-75 CNS = system: SNB-75 CNS
MCF7 breast = system: MCF7 breast
OVCAR-4 ovarian = system: OVCAR-4 ovarian
MALME-3M melanoma = system: MALME-3M melanoma
SK-MEL-2 melanoma = system: SK-MEL-2 melanoma
DU-145 prostate = system: DU-145 prostate
NCI/ADR-RES ovarian = system: NCI/ADR-RES ovarian
RPMI-8226 leukemia = system: RPMI-8226 leukemia
HOP-92 NSCLC = system: HOP-92 NSCLC
HCC-2998 colon = system: HCC-2998 colon
OVCAR-8 ovarian = system: OVCAR-8 ovarian
SNB-19 CNS = system: SNB-19 CNS
HCT-15 colon = system: HCT-15 colon
MOLT-4 leukemia = system: MOLT-4 leukemia
HL-60(TB) leukemia = system: HL-60(TB) leukemia
SW-620 colon = system: SW-620 colon
IGROV1 ovarian = system: IGROV1 ovarian
NCI-H226 lung = system: NCI-H226 lung
A549 NSCLC = system: A549 NSCLC
CCRF-CEM leukemia = system: CCRF-CEM leukemia
SF-295 CNS = system: SF-295 CNS
U251 CNS = system: U251 CNS
HS 578T breast = system: HS 578T breast
NCI-H522 lung = system: NCI-H522 lung
HT29 colon = system: HT29 colon
EKVX NSCLC = system: EKVX NSCLC
SK-MEL-5 melanoma = system: SK-MEL-5 melanoma
CAKI-1 renal = system: CAKI-1 renal
SR leukemia = system: SR leukemia
UO-31 renal = system: UO-31 renal
RXF 393 renal = system: RXF 393 renal

COc1cccc2c1c(C(=O)C(=O)Nc1cc(C)no1)cn2Cc1ccc(F)cc1
inactive: GI50 (SK-OV-3 ovarian) 31.4 µM | GI50 (K-562 leukemia) 1910 nM | GI50 (ACHN renal) 15.4 µM | GI50 (KM12 colon) 2190 nM | GI50 (SK-MEL-28 melanoma) 7.59 µM | GI50 (HOP-62 NSCLC) > 35.9 µM | GI50 (UACC-257 melanoma) 9.25 µM | GI50 (NCI-H23 lung) > 40.5 µM | GI50 (HCT-116 colon) 5.58 µM | GI50 (NCI-H460 lung) 5.15 µM | GI50 (TK-10 renal) 15.3 µM | GI50 (MDA-MB-435) 1080 nM | GI50 (PC-3 prostate) 11 µM | GI50 (BT-549 breast) 5.36 µM | GI50 (MDA-MB-231 breast) 5.41 µM | GI50 (LOX IMVI melanoma) 7.87 µM | GI50 (SF-539 CNS) 7.52 µM | GI50 (UACC-62 melanoma) 3.29 µM | GI50 (786-0 renal) 19.2 µM | GI50 (OVCAR-5 ovarian) > 55.5 µM | GI50 (SN12C renal) 8.28 µM | GI50 (M14 melanoma) 5.42 µM | GI50 (T-47D breast) 5.17 µM | GI50 (COLO 205 colon) 13.8 µM | GI50 (A498 renal) 19.6 µM | GI50 (OVCAR-3 ovarian) 2620 nM | GI50 (SF-268 CNS) 8.73 µM | GI50 (SNB-75 CNS) 3.42 µM | GI50 (MCF7 breast) 3.27 µM | GI50 (OVCAR-4 ovarian) 24 µM | GI50 (MALME-3M melanoma) 93.2 µM | GI50 (SK-MEL-2 melanoma) 8.48 µM | GI50 (DU-145 prostate) 19.4 µM | GI50 (NCI/ADR-RES ovarian) 3.78 µM | GI50 (RPMI-8226 leukemia) 2110 nM | GI50 (HOP-92 NSCLC) 14.2 µM | GI50 (HCC-2998 colon) 37 µM | GI50 (OVCAR-8 ovarian) 25.2 µM | GI50 (SNB-19 CNS) 10.1 µM | GI50 (HCT-15 colon) 2640 nM | GI50 (MOLT-4 leukemia) 3.99 µM | GI50 (HL-60(TB) leukemia) 2200 nM | GI50 (SW-620 colon) 3.68 µM | GI50 (IGROV1 ovarian) 3.68 µM | GI50 (NCI-H226 lung) 36.2 µM | GI50 (A549 NSCLC) 23.8 µM | GI50 (CCRF-CEM leukemia) 6.24 µM | GI50 (SF-295 CNS) 6.26 µM | GI50 (U251 CNS) 4.78 µM | GI50 (HS 578T breast) 3.47 µM | GI50 (NCI-H522 lung) 8.51 µM | GI50 (HT29 colon) 3.32 µM | GI50 (EKVX NSCLC) 32.6 µM | GI50 (SK-MEL-5 melanoma) 3.08 µM | GI50 (CAKI-1 renal) 5.92 µM | GI50 (SR leukemia) 573 nM | GI50 (UO-31 renal) 8.77 µM
25.6 µM: TGI (SK-MEL-5 melanoma)
> 90.6 µM: TGI (MCF7 breast)
> 81.8 µM: TGI (SN12C renal)
> 79.9 µM: TGI (M14 melanoma)
> 84.9 µM: TGI (PC-3 prostate)
> 66 µM: TGI (HOP-92 NSCLC)
> 45.4 µM: TGI (CAKI-1 renal)
> 60.7 µM: TGI (MOLT-4 leukemia)
> 67.5 µM: TGI (A498 renal)
71.8 µM: TGI (UACC-257 melanoma)
> 80 µM: TGI (SF-539 CNS)
> 89.6 µM: TGI (SK-MEL-28 melanoma)
46.9 µM: TGI (NCI-H460 lung)
> 87.3 µM: TGI (SK-MEL-2 melanoma)
3.64 µM: TGI (MDA-MB-435)
> 36.5 µM: TGI (K-562 leukemia)
> 27.3 µM: TGI (OVCAR-3 ovarian)
53 µM: TGI (COLO 205 colon)
> 44.4 µM: TGI (KM12 colon)
> 100 µM: TGI (SK-OV-3 ovarian) | TGI (ACHN renal) | TGI (HOP-62 NSCLC) | TGI (TK-10 renal) | TGI (BT-549 breast) | TGI (MDA-MB-231 breast) | TGI (LOX IMVI melanoma) | TGI (UACC-62 melanoma) | TGI (786-0 renal) | TGI (OVCAR-5 ovarian) | TGI (T-47D breast) | TGI (SF-268 CNS) | TGI (OVCAR-4 ovarian) | TGI (MALME-3M melanoma) | TGI (DU-145 prostate) | TGI (HCC-2998 colon) | TGI (OVCAR-8 ovarian) | TGI (SNB-19 CNS) | TGI (HCT-15 colon) | TGI (SW-620 colon) | TGI (NCI-H226 lung) | TGI (A549 NSCLC) | TGI (CCRF-CEM leukemia) | TGI (SF-295 CNS) | TGI (U251 CNS) | TGI (NCI-H522 lung) | TGI (HT29 colon) | TGI (EKVX NSCLC) | TGI (SR leukemia) | TGI (UO-31 renal)
> 45.8 µM: TGI (IGROV1 ovarian)
> 20.2 µM: TGI (HL-60(TB) leukemia)
> 73.5 µM: TGI (SNB-75 CNS)
> 24 µM: TGI (NCI/ADR-RES ovarian)
> 64.1 µM: TGI (HCT-116 colon)
> 24.2 µM: TGI (RPMI-8226 leukemia)
> 56.9 µM: TGI (HS 578T breast)
> 84 µM: TGI (NCI-H23 lung)

Nc1ncnc2ccc(Sc3ccc4ncnc(N)c4c3)cc12
> 100 µM: TGI (SK-OV-3 ovarian) | TGI (K-562 leukemia) | TGI (ACHN renal) | TGI (KM12 colon) | TGI (SK-MEL-28 melanoma) | TGI (HOP-62 NSCLC) | TGI (UACC-257 melanoma) | TGI (HCT-116 colon) | TGI (NCI-H460 lung) | TGI (TK-10 renal) | TGI (MDA-MB-435) | TGI (PC-3 prostate) | TGI (BT-549 breast) | TGI (MDA-MB-231 breast) | TGI (LOX IMVI melanoma) | TGI (SF-539 CNS) | TGI (UACC-62 melanoma) | TGI (786-0 renal) | TGI (OVCAR-5 ovarian) | TGI (SN12C renal) | TGI (M14 melanoma) | TGI (T-47D breast) | TGI (COLO 205 colon) | TGI (A498 renal) | TGI (OVCAR-3 ovarian) | TGI (SF-268 CNS) | TGI (SNB-75 CNS) | TGI (MCF7 breast) | TGI (OVCAR-4 ovarian) | TGI (MALME-3M melanoma) | TGI (SK-MEL-2 melanoma) | TGI (DU-145 prostate) | TGI (NCI/ADR-RES ovarian) | TGI (RPMI-8226 leukemia) | TGI (HOP-92 NSCLC) | TGI (OVCAR-8 ovarian) | TGI (SNB-19 CNS) | TGI (HCT-15 colon) | TGI (MOLT-4 leukemia) | TGI (HL-60(TB) leukemia) | TGI (SW-620 colon) | TGI (IGROV1 ovarian) | TGI (NCI-H226 lung) | TGI (A549 NSCLC) | TGI (CCRF-CEM leukemia) | TGI (SF-295 CNS) | TGI (U251 CNS) | TGI (HS 578T breast) | TGI (HT29 colon) | TGI (EKVX NSCLC) | TGI (SK-MEL-5 melanoma) | TGI (CAKI-1 renal) | TGI (RXF 393 renal) | TGI (SR leukemia) | TGI (UO-31 renal)
